17 compounds from US10125125B2, “N-(heteroaryl)-sulfonamide derivatives useful as S100-inhibitors” (Active Biotech AB, priority 2013, dated 2018) can be followed below.

pIC50: −log10 of the molar value.

Sequence of biotinylated human S100A9 : rhRAGE-Fc interaction (P06702 whole entry): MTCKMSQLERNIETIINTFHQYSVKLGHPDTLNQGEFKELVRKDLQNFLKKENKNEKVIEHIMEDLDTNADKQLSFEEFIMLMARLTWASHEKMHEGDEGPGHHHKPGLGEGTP

In this assay the target is biotinylated human S100A9 : rhRAGE-Fc interaction (Homo sapiens (Human), UniProt P06702). The assay can be described thus: AlphaScreen inhibition assay, Biot-hS100A9:hRAGE-Fc (S100A9-RAGE inhibition assay). In kind it is binding. The source says:
FIG. 1 is a schematic representation of an assay of the inhibition of the interaction between biotinylated human S100A9 and human RAGE-Fc using a small molecule S100A9 binder.
Inhibition Assay, Biot-hS100A9:hRAGE-Fc
The AlphaScreen (Amplified Luminescent Proximity Homogeneous Assay) contains two types of beads, Alpha Donor beads and Acceptor beads (PerkinElmer). Upon laser excitation at 680 nm a photosensitizer in the Donor bead converts ambient oxygen to a more excited singlet state. The singlet oxygen molecule diffuses (maximum 200 nm) to react with a thioxene derivative in the Acceptor bead and generates a chemiluminescence reaction. Fluorophores in the Acceptor bead subsequently emit light at 520-620 nm which can be detected in the EnVision® Multilabel plate Reader (PerkinElmer). The beads are light sensitive and all work with the beads is performed under subdued light conditions or using green filters on light sources (Roscolux Chroma Green #389, Rosco).
In the AlphaScreen Inhibition Assay described here, protein A (Staphylococcus aureus) conjugated Acceptor beads are used together with streptavidin coated Donor beads (Perkin Elmer 6760617M). The Acceptor beads are pre-incubated with Fc-tagged recombinant human RAGE (rhRAGE-Fc) allowing binding of the rhRAGE-Fc to protein A on the beads. Biotinylated human S100A9 (biot-hS100A9) is pre-incubated with the low molecular test compounds. The pre-mixes are then added to the wells of a micro-plate and incubated allowing interaction between biot-hS100A9 and rhRAGE-Fc. Subsequent addition of streptavidin coated Donor beads causes binding of the streptavidin to the biotinylated hS100A9. After an additional incubation the signal is measured.
Without inhibitory compounds, the interaction of biot-hS100A9 to rhRAGE-Fc will bring the Acceptor and Donor beads in close proximity thus generating a high signal. With an inhibitor present the complex will not form resulting in a decreased signal.
Chemicals and reagents. • AlphaScreen® General IgG (Protein A) Detection Kit, (PerkinElmer 6760617M) • HBS-P buffer (GE Healthcare, BR-1003-68) • HBS-N buffer (GE Healthcare, BR-1003-69) • CaCl2 in HBS-P • ZnCl2 in Milli-Q water • DMSO • Biotinylated hS100A9, (biotinylated via cystein by EZ-link Iodoacetyl-PEG2-Biotin reagent (Pierce no. 21334), in HBS-N • rhRAGE-Fc (R&D Systems, 1145-RG-50), in HBS-P
The AlphaScreen assay method is used for screening of the inhibitory effect of different compound samples at fixed concentrations or for IC50 determination by varying the compound concentrations. Samples of test compounds and references are prepared from solutions in DMSO. Relevant reference inhibitors and DMSO are used as controls for defined inhibition and non-inhibition, respectively in the assay. The percent inhibition in assay for test compounds and references are calculated by comparing their obtained assay signals with the signal values for the control with only DMSO (no compound).
Assay concentration of biotinylated hS100A9 and rhRAGE-Fc are batch dependent, and are determined and defined by separate cross-titration experiments using this AlphaScreen inhibition method to verify the optimal setup regarding signal strength and achievement of a defined inhibition with relevant reference compounds. The Final assay concentrations of Acceptor and Donor beads are 20 μg/mL.
Experimental Set Up for Screening, Preparation of Solutions and Beads.
Assay buffer is prepared by adding CaCl2 and ZnCl2 to HBS-P and is used freshly prepared in the experiment.
Biotin-hS100A9 solution for the experiment is prepared by dilution of appropriate amount of stock solution biot-hS100A9 in assay buffer (with CaCl2 and ZnCl2) and incubation in room temperature for 30 minutes.
rhRAGE-Fc solution for the experiment is prepared by dilution appropriate amount of rhRAGE-Fc stock in assay buffer.
Protein A Acceptor beads are diluted in assay buffer and are added to an equal volume of the prepared diluted rhRAGE-Fc solution.
On the technique in general: Bead proximity is the source of the signal in Alpha formats.
Usually pIC50 stands for −log10 of the IC50, conventionally taken in molar units. Turning to `O=S(=O)(Nc1ncc(Br)nc1O)C(c1cc(Cl)cc(Cl)c1)C(F)(F)F` (racemic) [Example 141, (+/−)-N-(5-bromo-3-hydroxypyrazin-2-yl)-1-(3,5-dichlorophenyl)-2,2,2-trifluoroethane-1-sulfonamide], the pIC50 was greater than 6.00. With `CC(C)c1cnc(NS(=O)(=O)c2cnc(Cl)c(Br)c2)c(O)c1` [Example 11, 5-bromo-6-chloro-N-[3-hydroxy-5-(propan-2-yl)pyridin-2-yl]pyridine-3-sulfonamide], the pIC50 was less than 6.00.

Take `O=S(=O)(Cc1cc(Cl)sc1Cl)Nc1ncc(Cl)cc1O` [Example 20, N-(5-chloro-3-hydroxypyridin-2-yl)-1-(2,5-dichlorothiophen-3-yl)methane-sulfonamide]: the pIC50 was greater than 6.00.

Regarding `CS(=O)(=O)c1cnc(NS(=O)(=O)Cc2cc(Cl)cc(Cl)c2)c(O)c1` [Example 32, 1-(3,5-dichlorophenyl)-N-(3-hydroxy-5-methanesulfonylpyridin-2-yl)methane-sulfonamide], the pIC50 was 6.85. The same measure for `O=S(=O)(Cc1cc(Cl)cc(Cl)c1)Nc1nnc(Cl)cc1O` [Example 36, N-(6-chloro-4-hydroxypyridazin-3-yl)-1-(3,5-dichlorophenyl)methanesulfonamide]: 7.00; for `O=S(=O)(Nc1ncc(Cl)cc1O)c1cncc(Br)c1` [Example 40, 5-bromo-N-(5-chloro-3-hydroxypyridin-2-yl)pyridine-3-sulfonamide]: 5.52; for `O=S(=O)(Nc1ncc(Cl)cc1O)c1ccc(C(F)(F)F)nc1` [Example 41, N-(5-chloro-3-hydroxypyridin-2-yl)-6-(trifluoromethyl)pyridine-3-sulfonamide]: less than 6.00. With `COc1ncc(S(=O)(=O)Nc2cncc(Cl)c2O)cc1Br` [Example 59, 5-bromo-N-(5-chloro-4-hydroxypyridin-3-yl)-6-methoxypyridine-3-sulfonamide], the pIC50 was 5.55. As to `COc1ncc(S(=O)(=O)Nc2cnccc2O)cc1Br` [Example 62, 5-bromo-N-(4-hydroxypyridin-3-yl)-6-methoxypyridine-3-sulfonamide], the pIC50 was 5.36. Turning to `O=S(=O)(Nc1cnccc1O)c1cc(Cl)sc1Cl` [Example 63, 2,5-dichloro-N-(4-hydroxypyridin-3-yl)thiophene-3-sulfonamide], the pIC50 was 5.34.

In the case of `O=S(=O)(Cc1ccc(Cl)c(Cl)c1)Nc1cnc(Cl)cc1O` [Example 70, N-(6-chloro-4-hydroxypyridin-3-yl)-1-(3,4-dichlorophenyl)methanesulfonamide], the pIC50 is 6.10. The same measure for `O=S(=O)(Nc1cc(Cl)cnc1O)c1cc(Cl)sc1Cl` [Example 74, 2,5-dichloro-N-(5-chloro-2-hydroxypyridin-3-yl)thiophene-3-sulfonamide]: 5.59; for `O=S(=O)(Cc1ccc(F)c(F)c1)Nc1nnc(Cl)cc1O` [Example 76, N-(6-chloro-4-hydroxypyridazin-3-yl)-1-(3,4-difluorophenyl)methanesulfonamide]: greater than 6.00. With `N#Cc1ccc(Cl)c(CS(=O)(=O)Nc2nnc(Cl)cc2O)c1` [Example 85, N-(6-chloro-4-hydroxypyridazin-3-yl)-1-(2-chloro-5-cyanophenyl)methane-sulfonamide] the figure was 6.01; with `CCS(=O)(=O)c1cnc(NS(=O)(=O)Cc2cccc(Cl)c2)c(O)n1` [Example 88, 1-(3-chlorophenyl)-N-[5-(ethanesulfonyl)-3-hydroxypyrazin-2-yl]methane-sulfonamide], less than 6.00. For `O=S(=O)(Nc1cncc(Cl)c1O)c1cc(Cl)cc(Cl)c1` [Example 89, 3,5-dichloro-N-(5-chloro-4-hydroxypyridin-3-yl)benzene-1-sulfonamide], the pIC50 was 5.68.

Regarding `O=S(=O)(Cc1cc(F)cc(Cl)c1)Nc1nnc(Cl)cc1O` [Example 94, N-(6-chloro-4-hydroxypyridazin-3-yl)-1-(3-chloro-5-fluorophenyl)methane-sulfonamide], the pIC50 is 6.52.
